Assays:
Assay type in all cases: in vivo
[1] = tested on: barnyardgrass (Echinochloa crus-galli, ECHCG); test: Test A pre-emergence, barnyardgrass; settings: after 13 d
Method in brief: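 Damage rated 0–100 (100 = total) 13 d after spraying. Application was one day post-sowing at 15.625, 62.5 or 250 g/ha, formulated in 50:50 acetone/water plus 0.5% Tween 20. Pots held in glasshouse at 24/16 °C day/night, 14 h light, 65% humidity, watered twice daily.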

corn (Zea mays, ZEAMX) = test: Test A post-emergence, corn; settings: after 13 d
Method in brief: (§1)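 Foliar application to 8-day-old seedlings at 15.625, 62.5 or 250 g/ha; phytotoxicity scored 0–100 after 13 d.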

[2] = tested on: barnyardgrass (Echinochloa crus-galli, ECHCG); test: Test A post-emergence, barnyardgrass; settings: after 13 d
Method in brief: as §1

maize = test: Test D pre-emergence, maize seed treated with a herbicide safener; settings: preemergent; for ZEAMX damage to plant (100=total damage; 0=no damage): safener-treated seed; for damage to plant (100=total damage to plant; 0=no damage to plant), ZEAMX: 20 DAA
Method: A formulation containing 50 g/L of the test chemical was prepared by dissolving the active ingredient in a mixture of organic solvents and emulsifier, details of which are provided in the table. This formulation was then mixed with a small, variable amount of acetone to aid dissolution, before addition of a 0.2% v/v aqueous solution of an adjuvant, as the aqueous diluent, to form an aqueous spray solution which contains a predetermined concentration of the active ingredient.
This aqueous spray solution was then sprayed onto plants including maize and wheat that had been seed treated with a herbicide safener, after one day's cultivation (for pre-emergence) or after about 12 days' cultivation (for post-emergence). The plants were grown from seeds sown in standard soil, placed in a glasshouse under controlled conditions (at 24/18° C. or 20/16° C., day/night; 16 h light; 65% humidity). After spray application the plants were then grown in a glasshouse under the same conditions and watered twice daily. After 15 d for post-emergence and 20 DAA for pre-emergence the test was evaluated (100=total damage to plant; 0=no damage to plant).

## CN1CC(c2cc(Cl)n(C)n2)C(C(=O)Nc2ccc(F)c(F)c2F)C1=O (racemic) [Compound 31]
[1]; Pre-Emergence at 15.625 g/ha
  damage to plant (100=total damage; 0=no damage) ECHCG: 60
[1]; Pre-Emergence at 62.5 g/ha
  damage to plant (100=total damage; 0=no damage) ECHCG: 80
[1]; Pre-Emergence at 250 g/ha
  damage to plant (100=total damage; 0=no damage) ECHCG: 80
Corn (Zea mays, ZEAMX); Post-Emergence at 15.625 g/ha
  damage to plant (100=total damage; 0=no damage) ZEAMX: 0
Corn (Zea mays, ZEAMX); Post-Emergence at 62.5 g/ha
  damage to plant (100=total damage; 0=no damage) ZEAMX: 0
Corn (Zea mays, ZEAMX); Post-Emergence at 250 g/ha
  damage to plant (100=total damage; 0=no damage) ZEAMX: 0
[2]; Post-Emergence at 15.625 g/ha
  damage to plant (100=total damage; 0=no damage) ECHCG: 50
[2]; Post-Emergence at 62.5 g/ha
  damage to plant (100=total damage; 0=no damage) ECHCG: 80
[2]; Post-Emergence at 250 g/ha
  damage to plant (100=total damage; 0=no damage) ECHCG: 80
maize; Rates 15, 20 DAA
  ZEAMX damage to plant (100=total damage; 0=no damage): 0
maize; Rates 30, 20 DAA
  ZEAMX damage to plant (100=total damage; 0=no damage): 0
maize; Rates 60, 20 DAA
  ZEAMX damage to plant (100=total damage; 0=no damage): 0
maize; Rates 130, 20 DAA
  ZEAMX damage to plant (100=total damage; 0=no damage): 0
maize; Rates 250, 20 DAA
  ZEAMX damage to plant (100=total damage; 0=no damage): 0
maize; Rates 500, 20 DAA
  ZEAMX damage to plant (100=total damage; 0=no damage): 0

## CN1CC(c2cc(C(F)(F)F)n(C)n2)C(C(=O)Nc2ccccc2F)C1=O (racemic) [Compound 9]
[1]; Pre-Emergence at 15.625 g/ha
  damage to plant (100=total damage; 0=no damage) ECHCG: 80
[1]; Pre-Emergence at 62.5 g/ha
  damage to plant (100=total damage; 0=no damage) ECHCG: 90
[1]; Pre-Emergence at 250 g/ha
  damage to plant (100=total damage; 0=no damage) ECHCG: 90
Corn (Zea mays, ZEAMX); Post-Emergence at 15.625 g/ha
  damage to plant (100=total damage; 0=no damage) ZEAMX: 20
Corn (Zea mays, ZEAMX); Post-Emergence at 62.5 g/ha
  damage to plant (100=total damage; 0=no damage) ZEAMX: 0
Corn (Zea mays, ZEAMX); Post-Emergence at 250 g/ha
  damage to plant (100=total damage; 0=no damage) ZEAMX: 50
[2]; Post-Emergence at 15.625 g/ha
  damage to plant (100=total damage; 0=no damage) ECHCG: 60
[2]; Post-Emergence at 62.5 g/ha
  damage to plant (100=total damage; 0=no damage) ECHCG: 90
[2]; Post-Emergence at 250 g/ha
  damage to plant (100=total damage; 0=no damage) ECHCG: 90
maize; rate 15
  damage to plant (100=total damage to plant; 0=no damage to plant), ZEAMX: 0
maize; rate 30
  damage to plant (100=total damage to plant; 0=no damage to plant), ZEAMX: 0
maize; rate 60
  damage to plant (100=total damage to plant; 0=no damage to plant), ZEAMX: 0
maize; rate 130
  damage to plant (100=total damage to plant; 0=no damage to plant), ZEAMX: 0
maize; rate 250
  damage to plant (100=total damage to plant; 0=no damage to plant), ZEAMX: 0
maize; rate 500
  damage to plant (100=total damage to plant; 0=no damage to plant), ZEAMX: 0

## CN1CC(c2cnn(C)c2C(F)(F)F)C(C(=O)Nc2cccc(F)c2F)C1=O (racemic) [Compound 25]
[1]; Pre-Emergence at 15.625 g/ha
  damage to plant (100=total damage; 0=no damage) ECHCG: 90
[1]; Pre-Emergence at 62.5 g/ha
  damage to plant (100=total damage; 0=no damage) ECHCG: 100
[1]; Pre-Emergence at 250 g/ha
  damage to plant (100=total damage; 0=no damage) ECHCG: 100
Corn (Zea mays, ZEAMX); Post-Emergence at 15.625 g/ha
  damage to plant (100=total damage; 0=no damage) ZEAMX: 0
Corn (Zea mays, ZEAMX); Post-Emergence at 62.5 g/ha
  damage to plant (100=total damage; 0=no damage) ZEAMX: 20
Corn (Zea mays, ZEAMX); Post-Emergence at 250 g/ha
  damage to plant (100=total damage; 0=no damage) ZEAMX: 30
[2]; Post-Emergence at 15.625 g/ha
  damage to plant (100=total damage; 0=no damage) ECHCG: 30
[2]; Post-Emergence at 62.5 g/ha
  damage to plant (100=total damage; 0=no damage) ECHCG: 70
[2]; Post-Emergence at 250 g/ha
  damage to plant (100=total damage; 0=no damage) ECHCG: 80
maize; rate 15
  damage to plant (100=total damage to plant; 0=no damage to plant), ZEAMX: 0
maize; rate 30
  damage to plant (100=total damage to plant; 0=no damage to plant), ZEAMX: 0
maize; rate 60
  damage to plant (100=total damage to plant; 0=no damage to plant), ZEAMX: 0
maize; rate 130
  damage to plant (100=total damage to plant; 0=no damage to plant), ZEAMX: 0
maize; rate 250
  damage to plant (100=total damage to plant; 0=no damage to plant), ZEAMX: 0
maize; rate 500
  damage to plant (100=total damage to plant; 0=no damage to plant), ZEAMX: 0

## CCn1nc([C@H]2CN(C)C(=O)[C@@H]2C(=O)Nc2cccc(F)c2F)c2ccc(F)cc21 [Compound 4]
[1]; Pre-Emergence at 15.625 g/ha
  damage to plant (100=total damage; 0=no damage) ECHCG: 90
[1]; Pre-Emergence at 62.5 g/ha
  damage to plant (100=total damage; 0=no damage) ECHCG: 90
[1]; Pre-Emergence at 250 g/ha
  damage to plant (100=total damage; 0=no damage) ECHCG: 100
Corn (Zea mays, ZEAMX); Post-Emergence at 15.625 g/ha
  damage to plant (100=total damage; 0=no damage) ZEAMX: 20
Corn (Zea mays, ZEAMX); Post-Emergence at 62.5 g/ha
  damage to plant (100=total damage; 0=no damage) ZEAMX: 50
Corn (Zea mays, ZEAMX); Post-Emergence at 250 g/ha
  damage to plant (100=total damage; 0=no damage) ZEAMX: 90
[2]; Post-Emergence at 15.625 g/ha
  damage to plant (100=total damage; 0=no damage) ECHCG: 80
[2]; Post-Emergence at 62.5 g/ha
  damage to plant (100=total damage; 0=no damage) ECHCG: 90
[2]; Post-Emergence at 250 g/ha
  damage to plant (100=total damage; 0=no damage) ECHCG: 90
maize; rate 15
  damage to plant (100=total damage to plant; 0=no damage to plant), ZEAMX: 0
maize; rate 30
  damage to plant (100=total damage to plant; 0=no damage to plant), ZEAMX: 0
maize; rate 60
  damage to plant (100=total damage to plant; 0=no damage to plant), ZEAMX: 0
maize; rate 130
  damage to plant (100=total damage to plant; 0=no damage to plant), ZEAMX: 0
maize; rate 250
  damage to plant (100=total damage to plant; 0=no damage to plant), ZEAMX: 0
maize; rate 500
  damage to plant (100=total damage to plant; 0=no damage to plant), ZEAMX: 10

From US20220281848A1, “PYRAZOLE-SUBSTITUTED PYRROLIDINONES AS HERBICIDES” (FMC Corporation, priority 2019, published 2022)
